US20100324072A1, “PYRROLOPYRIDINE DERIVATIVES AND THEIR USE AS BACE INHIBITORS” (ASTRAZENECA AB, priority 2007, published 2010)

Target: T1, human β-Secretase (Homo sapiens, UniProt P56817)
T1 construct: The soluble part of the human β-Secretase (AA 1-AA 460) was cloned; Fc domain of IgG1 (C); made in house
Assay: TR-FRET assay (β-secretase enzyme cleavage of (Europium)CEVNLDAEFK(Qsy7) substrate)
Type: biochemical
Details: sBACE-Fc 2.7 μg/ml, substrate 100 nM, pH 4.5, 15 min at RT
Protocol: The enzyme used in the IGEN Cleavage-, Fluorescent-, TR-FRET- and BiaCore assays is described as follows:
The soluble part of the human β-Secretase (AA 1-AA 460) was cloned into the ASP2-Fc10-1-IRES-GFP-neoK mammalian expression vector. The gene was fused to the Fc domain of IgG1 (affinity tag) and stably cloned into HEK 293 cells. Purified sBACE-Fc is stored in Tris buffer, pH 9.2 and has a purity of 95%.
Enzyme was diluted to 6 μg/mL and the substrate (Europium)CEVNLDAEFK(Qsy7) to 200 nM in reaction buffer (NaAcetate, chaps, triton x-100, EDTA pH 4.5). Compounds were diluted to the desired concentration in dimethyl sulfoxide (final dimethyl sulfoxide concentration in assay is 5%). The assay was done in a Costar 384 well round bottom, low volume, non-binding surface plate (Corning #3676). Enzyme (9 μL) and 1 μL of compound in dimethyl sulfoxide was added to the plate, mixed and pre-incubated for 10 min. Substrate (10 μL) was added and the reaction proceeded in the dark for 15 min at RT. The reaction was stopped with the addition of 7 μl, NaAcetate, pH 9. The fluorescence of the product was measured on a Victor II plate reader with an excitation wavelength of 340 nm and an emission wavelength of 615 nm. The final concentration of the enzyme was 2.7 μg/ml and the final concentration of the substrate was 100 nM (Km of 290 nM). […]

T1 sequence (P56817 22-460): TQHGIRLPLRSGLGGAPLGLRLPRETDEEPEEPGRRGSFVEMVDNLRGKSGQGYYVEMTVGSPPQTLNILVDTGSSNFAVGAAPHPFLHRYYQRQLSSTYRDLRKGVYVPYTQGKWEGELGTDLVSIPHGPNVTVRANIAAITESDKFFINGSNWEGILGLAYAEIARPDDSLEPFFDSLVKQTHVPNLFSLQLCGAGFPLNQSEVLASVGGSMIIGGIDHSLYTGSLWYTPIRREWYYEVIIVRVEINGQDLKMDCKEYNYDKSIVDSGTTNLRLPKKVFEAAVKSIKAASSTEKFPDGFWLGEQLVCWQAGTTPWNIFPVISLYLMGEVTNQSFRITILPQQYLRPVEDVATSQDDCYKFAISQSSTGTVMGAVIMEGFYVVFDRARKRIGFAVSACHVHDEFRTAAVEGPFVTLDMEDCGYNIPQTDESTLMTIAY

- Ki: 0.088 µM
Compound: COc1cccc(-c2cccc(C3(c4ccncc4)N=C(N)c4cccnc43)c2)c1F (stereo not shown) [Example 23, 7-(2′-Fluoro-3′-methoxybiphenyl-3-yl)-7-pyridin-4-yl-7H-pyrrolo[3,4-b]pyridin-5-amine]
